Source: patent US20190314312A1, “COMBINATION THERAPY TO INCREASE ENDOGENOUS NITRIC OXIDE (NO) SYNTHESIS” (Yeda Research and Development Co. Ltd., priority 2016, published 2019)

Tested on: CD64+, CD11c+ macrophages
Test: FACS analysis of colon CD64+, CD11c+ macrophages after colitis induction
Type: in vivo, mouse
Conditions: fisetin vs control, FIGS. 14D-F
Experimental: Colon segment was flushed with cold PBS, longitudinally cut open and rinsed to remove residual luminal contents. Tissue was cut into 3- to 5-mm pieces and incubated in HBSS medium containing EDTA 0.5 M and Hepes 10 mM at 37° C. for 20 minutes, shaken at 180 rpm, to separate epithelial fraction. Supernatant was centrifuged at 4° C. at 500 g for 10 minutes. Recovered tissue was digested in HBSS medium with 2% fetal bovine serum (FBS), 0.05% collagenase II and 0.05% DNase I (Sigma) for 40 minutes. at 37° C., shaken at 180 rpm. LP cells were filtered through 65 μm mesh and centrifuged at 4° C. at 500 g for 10 minutes. The present inventors prepared single cell suspensions from mouse colon by enzymatic digestion and analyzed by polychromatic flow cytometry. Samples were stained with conjugated antibodies or matching isotype controls according to manufacturer's instructions. Data were acquired on an LSRII (BD Biosciences) or FACSCalibur instrument (Becton-Dickinson) with CellQuest software, with a MacsQuant instrument (Miltenyi, Bergisch Gladbach, Germany), and analyzed using BD FACSDiva 6 or FlowJo software (version 7.6.5, or version vX.0.7 Tree Star Inc) or MacsQuant. Colon cells were stained for 30 min at 4° C. in flow cytometry buffer (PBS, 10% FCS and 0.02% azide). For antigens that require intracellular staining (As1, iNOS and S-nitrosocystein), cell surface staining was followed by cell fixation and permeabilization with the Cytofix/Cytoperm kit (BD Biosciences) according to the manufacturer's instructions. […] After staining for cell surface antigens, intracellular NO was detected by incubation of cells for 15 min at 37° C. with 10 μM DAF-FM diacetate followed by extensive washing, according to the manufacturer's instructions (Molecular Probes). […] As1 was detected using anti-As1-ALEXA FLUOR® 488 (BD Biosciences), iNOS using anti-iNOS followed by anti-rat 488 (Jackson ImmunoResearch), and nitrosylation using anti-S-nitrosocystein (from abcam) followed by anti-mouse 488 (Jackson ImmunoResearch).

O=c1c(O)c(-c2ccc(O)c(O)c2)oc2cc(O)ccc12 [fisetin, 3,7, 3′, 4′-tetrahydroxyflavone]
decrease: As1 levels | NO levels | iNOS levels
